The results in this text go back to ChEMBL document CHEMBL4622865, “Sulfonamide-based 4-anilinoquinoline derivatives as novel dual Aurora kinase (AURKA/B) inhibitors: Synthesis, biological evaluation and in silico insights” (Bioorg Med Chem, 2020).

A word on the inhibition: it is the drop in the measured response relative to a control, in per cent. The IC50 is the concentration that gives 50% inhibition.

The target in assay [1] is T1, Aurora kinase A (Homo sapiens) (UniProt O14965).
T1 sequence (whole entry): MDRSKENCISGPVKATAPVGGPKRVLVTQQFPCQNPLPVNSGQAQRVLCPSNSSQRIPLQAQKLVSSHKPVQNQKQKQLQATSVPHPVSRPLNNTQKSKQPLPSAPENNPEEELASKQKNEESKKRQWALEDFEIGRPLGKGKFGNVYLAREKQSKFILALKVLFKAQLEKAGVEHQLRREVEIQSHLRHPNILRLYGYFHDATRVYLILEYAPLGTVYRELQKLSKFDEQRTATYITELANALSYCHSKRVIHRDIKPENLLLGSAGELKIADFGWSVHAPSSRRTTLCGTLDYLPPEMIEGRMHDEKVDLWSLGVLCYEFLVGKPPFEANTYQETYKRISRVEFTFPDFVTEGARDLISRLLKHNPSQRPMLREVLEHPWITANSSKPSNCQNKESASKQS
The assay can be described thus: Inhibition of human Aurora A using [H-LRRASLG] as substrate at 20 uM in presence of [gamma-33P]-ATP incubated for 2 hrs by hotspot kinase assay relative to control.

The target of assay [2] is T2, Aurora kinase B (Homo sapiens, UniProt Q96GD4). The assay can be described thus: Inhibition of human Aurora B using [H-LRRASLG] as substrate at 20 uM in presence of [gamma-33P]-ATP incubated for 2 hrs by hotspot kinase assay relative to control.
Another assay concerns the target T3, Aurora kinase A (Homo sapiens, UniProt O14965).
T3 sequence (O14965 whole entry): T1 sequence (whole entry)
The assay can be described thus: Inhibition of human Aurora A using [H-LRRASLG] as substrate in presence of [gamma-33P]-ATP incubated for 2 hrs by hotspot kinase assay.

Assay [3] deals with T2, Aurora kinase B. The assay can be described thus: Inhibition of human Aurora B using [H-LRRASLG] as substrate in presence of [gamma-33P]-ATP incubated for 2 hrs by hotspot kinase assay.
For another assay, the system named is A498. The assay can be described thus: Antitumor activity against human A498 cells assessed as growth inhibition at 10-'5 M incubated for 48 hrs by SRB assay relative to control. Type of assay: functional. A general note: The SRB assay estimates cell density from bound dye.
The subject of the next assay is UO-31. The assay can be described thus: Antitumor activity against human UO31 cells assessed as growth inhibition at 10-'5 M incubated for 48 hrs by SRB assay relative to control. Type of assay: functional.
The next assay concerns MDA-MB-231. The assay can be described thus: Antitumor activity against human MDA-MB-231 cells assessed as growth inhibition at 10-'5 M incubated for 48 hrs by SRB assay relative to control. The class given is functional.
The next assay concerns Hs-578T. The assay can be described thus: Antitumor activity against human Hs 578T cells assessed as growth inhibition at 10-'5 M incubated for 48 hrs by SRB assay relative to control. Type of assay: functional.
The next assay concerns KM12. The assay can be described thus: Antitumor activity against human KM12 cells assessed as growth inhibition at 10-'5 M incubated for 48 hrs by SRB assay relative to control. The class given is functional.
The next assay concerns SK-MEL-5. The assay can be described thus: Antitumor activity against human SK-MEL-5 cells assessed as growth inhibition at 10-'5 M incubated for 48 hrs by SRB assay relative to control. Type of assay: functional.
For the next assay, the system named is UACC-62. The assay can be described thus: Antitumor activity against human UACC62 cells assessed as growth inhibition at 10-'5 M incubated for 48 hrs by SRB assay relative to control. Type of assay: functional.
Another assay deals with CAKI-1. The assay can be described thus: Antitumor activity against human CAKI-1 cells assessed as growth inhibition at 10-'5 M incubated for 48 hrs by SRB assay relative to control. The class given is functional.
Another assay concerns MCF7. The assay can be described thus: Antitumor activity against human MCF7 cells assessed as growth inhibition at 10-'5 M incubated for 48 hrs by SRB assay relative to control. The class given is functional.
The test system of the next assay is T47D. The assay can be described thus: Antitumor activity against human T47D cells assessed as growth inhibition at 10-'5 M incubated for 48 hrs by SRB assay relative to control. The class given is functional.
The test system of another assay is SNB-75. The assay can be described thus: Antitumor activity against human SNB75 cells assessed as growth inhibition at 10-'5 M incubated for 48 hrs by SRB assay relative to control. The class given is functional.
In another assay the test system is MOLT-4. The assay can be described thus: Antitumor activity against human MOLT4 cells assessed as growth inhibition at 10-'5 M incubated for 48 hrs by SRB assay relative to control. Type of assay: functional.
For another assay, the system named is HOP-62. The assay can be described thus: Antitumor activity against human HOP62 cells assessed as growth inhibition at 10-'5 M incubated for 48 hrs by SRB assay relative to control. The class given is functional.
The next assay has as its system IGROV-1. The assay can be described thus: Antitumor activity against human IGROV1 cells assessed as growth inhibition at 10-'5 M incubated for 48 hrs by SRB assay relative to control. The class given is functional.
Assay [4] deals with Calcium/calmodulin-dependent protein kinase kinase 2 (Homo sapiens) (UniProt Q96RR4). The assay can be described thus: Inhibition of human CAMKK2 using MBP as substrate at 20 uM in presence of [gamma-33P]-ATP incubated for 2 hrs by hotspot kinase assay relative to control.
Assay [5] deals with MAP kinase-activated protein kinase 3 (Homo sapiens) (UniProt Q16644). The assay can be described thus: Inhibition of human MAPKAPK3 using KKLNRTLSVA as substrate at 20 uM in presence of [gamma-33P]-ATP incubated for 2 hrs by hotspot kinase assay relative to control.
The target of assay [6] is Proto-oncogene tyrosine-protein kinase ROS (Homo sapiens) (UniProt P08922). The assay can be described thus: Inhibition of human ROS/ROS1 using KKKSPGEYVNIEFG as substrate at 20 uM in presence of [gamma-33P]-ATP incubated for 2 hrs by hotspot kinase assay relative to control.
The target in assay [7] is Dual specificity testis-specific protein kinase 1 (Homo sapiens) (UniProt Q15569). The assay can be described thus: Inhibition of human TESK1 using cofilin as substrate at 20 uM in presence of [gamma-33P]-ATP incubated for 2 hrs by hotspot kinase assay relative to control.
Assay [8] deals with Serine/threonine-protein kinase VRK2 (Homo sapiens) (UniProt Q86Y07). The assay can be described thus: Inhibition of human VRK2 using casein as substrate at 20 uM in presence of [gamma-33P]-ATP incubated for 2 hrs by hotspot kinase assay relative to control.
The next assay relates to 786-0. The assay can be described thus: Antitumor activity against human 786-O cells assessed as growth inhibition at 10-'5 M incubated for 48 hrs by SRB assay relative to control. Type of assay: functional.
For a further assay, the system named is HCT-116. The assay can be described thus: Antitumor activity against human HCT116 cells assessed as growth inhibition at 10-'5 M incubated for 48 hrs by SRB assay relative to control. The class given is functional.
A further assay deals with M14. The assay can be described thus: Antitumor activity against human M14 cells assessed as growth inhibition at 10-'5 M incubated for 48 hrs by SRB assay relative to control. Type of assay: functional.
In another assay the test system is BT-549. The assay can be described thus: Antitumor activity against human BT549 cells assessed as growth inhibition at 10-'5 M incubated for 48 hrs by SRB assay relative to control. The class given is functional.
The next assay relates to EKVX. The assay can be described thus: Antitumor activity against human EKVX cells assessed as growth inhibition at 10-'5 M incubated for 48 hrs by SRB assay relative to control. Type of assay: functional.
The species named for a further assay is Homo sapiens. The assay can be described thus: Selectivity ratio of IC50 for inhibition of human AURKB to IC50 for inhibition of human AURKA.
A further assay has as its system NCI-H522. The assay can be described thus: Antitumor activity against human NCI-H522 cells assessed as growth inhibition at 10-'5 M incubated for 48 hrs by SRB assay relative to control. The class given is functional.
For a further assay, the system named is HCT-15. The assay can be described thus: Antitumor activity against human HCT15 cells assessed as growth inhibition at 10-'5 M incubated for 48 hrs by SRB assay relative to control. The class given is functional.
The next assay has as its system NCI/ADR-RES. The assay can be described thus: Antitumor activity against human NCI-ADR-RES cells assessed as growth inhibition at 10-'5 M incubated for 48 hrs by SRB assay relative to control. Type of assay: functional.

T2 sequence (Q96GD4 whole entry): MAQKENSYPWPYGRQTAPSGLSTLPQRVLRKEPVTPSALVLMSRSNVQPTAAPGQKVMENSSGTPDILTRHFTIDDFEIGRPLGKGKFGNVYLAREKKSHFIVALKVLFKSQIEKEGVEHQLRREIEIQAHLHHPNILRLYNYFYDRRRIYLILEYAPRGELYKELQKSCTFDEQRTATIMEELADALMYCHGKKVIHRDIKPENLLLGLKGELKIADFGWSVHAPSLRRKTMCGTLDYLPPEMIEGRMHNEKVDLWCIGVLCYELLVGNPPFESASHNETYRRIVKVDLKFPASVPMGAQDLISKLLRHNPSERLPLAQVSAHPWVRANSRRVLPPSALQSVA
Calcium/calmodulin-dependent protein kinase kinase 2 (Homo sapiens), sequence (Q96RR4 2-588 limits assumed): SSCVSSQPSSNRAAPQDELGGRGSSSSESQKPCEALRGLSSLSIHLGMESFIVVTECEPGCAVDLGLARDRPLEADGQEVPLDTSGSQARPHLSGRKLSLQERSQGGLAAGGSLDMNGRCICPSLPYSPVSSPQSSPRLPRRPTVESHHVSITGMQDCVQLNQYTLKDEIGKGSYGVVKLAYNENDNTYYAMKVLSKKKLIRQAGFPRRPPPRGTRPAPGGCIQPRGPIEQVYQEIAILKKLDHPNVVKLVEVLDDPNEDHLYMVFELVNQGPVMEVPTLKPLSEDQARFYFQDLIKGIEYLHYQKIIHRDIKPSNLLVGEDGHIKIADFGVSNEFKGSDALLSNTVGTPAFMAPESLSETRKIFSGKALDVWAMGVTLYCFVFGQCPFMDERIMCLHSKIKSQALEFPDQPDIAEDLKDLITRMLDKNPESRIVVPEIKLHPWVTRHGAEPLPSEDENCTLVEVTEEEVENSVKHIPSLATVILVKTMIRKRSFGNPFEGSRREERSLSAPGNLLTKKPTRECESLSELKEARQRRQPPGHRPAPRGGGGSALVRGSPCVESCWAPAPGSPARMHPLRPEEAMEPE
Proto-oncogene tyrosine-protein kinase ROS (Homo sapiens), sequence (P08922 whole entry): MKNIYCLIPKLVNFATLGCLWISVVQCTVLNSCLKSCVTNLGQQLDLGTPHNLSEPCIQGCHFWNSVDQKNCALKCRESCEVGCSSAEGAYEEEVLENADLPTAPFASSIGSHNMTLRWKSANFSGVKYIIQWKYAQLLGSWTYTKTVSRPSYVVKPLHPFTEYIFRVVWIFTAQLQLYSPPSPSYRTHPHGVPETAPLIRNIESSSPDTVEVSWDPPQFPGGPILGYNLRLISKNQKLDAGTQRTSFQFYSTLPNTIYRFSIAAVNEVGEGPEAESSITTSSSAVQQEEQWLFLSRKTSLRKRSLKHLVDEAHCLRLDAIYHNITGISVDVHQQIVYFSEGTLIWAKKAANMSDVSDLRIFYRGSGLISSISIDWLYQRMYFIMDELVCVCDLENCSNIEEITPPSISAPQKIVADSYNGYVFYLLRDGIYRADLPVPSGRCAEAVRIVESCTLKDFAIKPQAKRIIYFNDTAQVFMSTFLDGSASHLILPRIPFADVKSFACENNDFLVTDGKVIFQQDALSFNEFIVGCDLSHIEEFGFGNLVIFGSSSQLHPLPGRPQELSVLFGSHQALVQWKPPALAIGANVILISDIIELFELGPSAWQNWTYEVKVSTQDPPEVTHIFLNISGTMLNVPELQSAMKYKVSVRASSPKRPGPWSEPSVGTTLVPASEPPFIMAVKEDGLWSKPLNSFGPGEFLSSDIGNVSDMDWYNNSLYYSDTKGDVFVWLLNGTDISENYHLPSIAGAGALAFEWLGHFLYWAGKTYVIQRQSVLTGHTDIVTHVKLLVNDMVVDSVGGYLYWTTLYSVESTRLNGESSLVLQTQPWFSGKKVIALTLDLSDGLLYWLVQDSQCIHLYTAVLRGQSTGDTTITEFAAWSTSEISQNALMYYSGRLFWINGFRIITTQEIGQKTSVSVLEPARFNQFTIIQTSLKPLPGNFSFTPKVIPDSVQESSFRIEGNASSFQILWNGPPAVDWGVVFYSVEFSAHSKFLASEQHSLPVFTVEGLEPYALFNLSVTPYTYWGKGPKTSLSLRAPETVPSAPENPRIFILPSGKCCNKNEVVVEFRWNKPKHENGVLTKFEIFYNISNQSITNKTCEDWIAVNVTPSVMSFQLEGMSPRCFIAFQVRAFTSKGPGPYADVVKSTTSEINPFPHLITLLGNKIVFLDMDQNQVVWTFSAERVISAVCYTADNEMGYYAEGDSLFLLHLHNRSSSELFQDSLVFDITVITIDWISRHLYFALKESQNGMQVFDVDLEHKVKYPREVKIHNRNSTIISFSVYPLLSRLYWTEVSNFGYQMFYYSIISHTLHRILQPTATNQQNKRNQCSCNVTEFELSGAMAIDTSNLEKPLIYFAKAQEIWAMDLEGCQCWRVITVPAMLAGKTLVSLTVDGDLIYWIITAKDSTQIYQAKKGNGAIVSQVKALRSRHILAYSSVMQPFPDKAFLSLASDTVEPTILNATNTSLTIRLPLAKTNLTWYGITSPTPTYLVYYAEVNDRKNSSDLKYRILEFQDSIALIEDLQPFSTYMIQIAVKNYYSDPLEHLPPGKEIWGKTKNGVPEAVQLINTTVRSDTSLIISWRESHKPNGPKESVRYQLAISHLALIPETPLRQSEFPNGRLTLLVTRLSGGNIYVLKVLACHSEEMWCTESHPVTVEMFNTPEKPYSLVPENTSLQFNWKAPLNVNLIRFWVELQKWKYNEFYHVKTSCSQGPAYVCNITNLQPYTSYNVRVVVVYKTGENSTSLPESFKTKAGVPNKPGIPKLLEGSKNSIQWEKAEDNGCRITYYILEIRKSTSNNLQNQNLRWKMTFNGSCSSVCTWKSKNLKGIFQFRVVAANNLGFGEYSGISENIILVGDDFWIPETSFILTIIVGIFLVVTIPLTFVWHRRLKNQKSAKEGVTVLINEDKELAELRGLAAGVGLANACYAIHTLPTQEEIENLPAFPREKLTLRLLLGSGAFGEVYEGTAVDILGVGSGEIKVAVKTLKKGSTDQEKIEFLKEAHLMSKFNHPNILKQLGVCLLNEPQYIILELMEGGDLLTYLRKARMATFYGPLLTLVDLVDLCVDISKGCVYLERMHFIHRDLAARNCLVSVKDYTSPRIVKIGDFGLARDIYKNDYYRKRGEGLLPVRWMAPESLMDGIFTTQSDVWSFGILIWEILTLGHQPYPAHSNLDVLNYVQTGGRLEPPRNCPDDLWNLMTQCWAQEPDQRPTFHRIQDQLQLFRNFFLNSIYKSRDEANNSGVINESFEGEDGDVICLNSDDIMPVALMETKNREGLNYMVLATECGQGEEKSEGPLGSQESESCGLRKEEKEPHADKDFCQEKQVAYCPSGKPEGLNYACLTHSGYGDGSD
MAP kinase-activated protein kinase 3 (Homo sapiens), sequence (Q16644 whole entry, looked up): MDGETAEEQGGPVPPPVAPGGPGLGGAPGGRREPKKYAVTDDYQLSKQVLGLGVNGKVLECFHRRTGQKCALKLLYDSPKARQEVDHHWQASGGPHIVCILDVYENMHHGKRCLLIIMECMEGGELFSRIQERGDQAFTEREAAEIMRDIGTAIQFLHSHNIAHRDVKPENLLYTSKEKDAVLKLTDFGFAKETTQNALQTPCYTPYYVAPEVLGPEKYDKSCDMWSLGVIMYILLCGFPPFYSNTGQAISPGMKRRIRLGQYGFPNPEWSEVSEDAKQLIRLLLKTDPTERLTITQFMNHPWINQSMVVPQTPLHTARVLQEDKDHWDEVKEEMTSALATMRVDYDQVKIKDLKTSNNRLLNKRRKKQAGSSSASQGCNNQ
Serine/threonine-protein kinase VRK2 (Homo sapiens), sequence (Q86Y07 whole entry): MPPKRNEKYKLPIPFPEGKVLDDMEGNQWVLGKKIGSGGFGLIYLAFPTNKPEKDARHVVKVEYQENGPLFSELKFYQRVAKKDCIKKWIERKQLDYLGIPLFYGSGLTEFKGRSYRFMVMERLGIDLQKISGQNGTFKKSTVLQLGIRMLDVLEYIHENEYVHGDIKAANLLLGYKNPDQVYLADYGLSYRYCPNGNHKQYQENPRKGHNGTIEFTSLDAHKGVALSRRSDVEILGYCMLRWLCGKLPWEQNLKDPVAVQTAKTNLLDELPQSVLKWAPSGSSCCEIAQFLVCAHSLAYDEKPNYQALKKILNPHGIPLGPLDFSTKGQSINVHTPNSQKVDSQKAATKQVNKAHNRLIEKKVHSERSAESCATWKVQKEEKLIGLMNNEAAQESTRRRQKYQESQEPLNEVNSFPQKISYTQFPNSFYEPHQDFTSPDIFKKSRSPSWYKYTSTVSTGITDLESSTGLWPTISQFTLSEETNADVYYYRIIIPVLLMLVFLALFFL
Dual specificity testis-specific protein kinase 1 (Homo sapiens), sequence (Q15569 whole entry, looked up): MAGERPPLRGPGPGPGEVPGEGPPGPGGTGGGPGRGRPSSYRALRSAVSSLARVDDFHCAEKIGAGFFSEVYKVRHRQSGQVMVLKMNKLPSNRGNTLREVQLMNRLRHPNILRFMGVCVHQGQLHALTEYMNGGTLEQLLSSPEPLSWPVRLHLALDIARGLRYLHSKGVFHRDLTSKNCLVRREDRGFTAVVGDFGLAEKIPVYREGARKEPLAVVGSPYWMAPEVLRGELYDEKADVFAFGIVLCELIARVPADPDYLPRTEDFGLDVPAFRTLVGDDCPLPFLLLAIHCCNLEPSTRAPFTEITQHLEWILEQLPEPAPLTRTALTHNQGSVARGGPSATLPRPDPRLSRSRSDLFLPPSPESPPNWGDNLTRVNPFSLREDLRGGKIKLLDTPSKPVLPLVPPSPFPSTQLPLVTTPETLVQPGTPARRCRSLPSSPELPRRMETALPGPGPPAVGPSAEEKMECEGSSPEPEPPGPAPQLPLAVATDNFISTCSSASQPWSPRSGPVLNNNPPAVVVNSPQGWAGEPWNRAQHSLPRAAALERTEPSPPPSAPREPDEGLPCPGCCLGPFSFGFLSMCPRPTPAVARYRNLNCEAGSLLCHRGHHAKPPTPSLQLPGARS

With `CCOC(=O)c1cnc2ccc(Br)cc2c1Nc1cccc(NS(C)(=O)=O)c1`, the figures for the inhibition (in [1]; on Aurora kinase B [2]) were 66% and 91.6%, respectively. Also, the IC50 on Aurora kinase A came to 1.77 µM; at Aurora kinase B [3], 1.35 µM. In addition, the “growth inhibition (GI)” value in the assay on A498 and with UO-31 was “>=20%” each time.
Regarding `CCOC(=O)c1cnc2ccccc2c1Nc1cccc(S(=O)(=O)NC)c1`, the “growth inhibition (GI)” value in the assay on MDA-MB-231, in the assay on Hs-578T, with KM12, in the assay with SK-MEL-5, with UACC-62 and in the assay with A498 was “>=20%” each time. For the same molecule, the “growth inhibition (GI)” value in the assay with CAKI-1, with UO-31, with MCF7, with T47D, in the assay on SNB-75 and with MOLT-4 was “>=20%” in each case. In addition, the “growth inhibition (GI)” value in the assay on HOP-62 and in the assay on IGROV-1 was “>=20%” in each case. The results for the inhibition (in [1]; on Aurora kinase B [2]) were 6.15% and 33.7%, respectively.
Regarding `CCOC(=O)c1cnc2ccccc2c1Nc1cccc(S(N)(=O)=O)c1`, the inhibition in assay [1] was 64.3%; at Aurora kinase B [2], 60.9%. In addition, the IC50 on Aurora kinase A worked out at 16.6 µM; at Aurora kinase B [3], 12.5 µM. The “growth inhibition (GI)” value in the assay on CAKI-1, in the assay with UO-31 and in the assay on SNB-75 was “>=20%” in each case.
In the case of `CCOC(=O)c1cnc2ccc(C)cc2c1Nc1cccc(S(=O)(=O)NC)c1`, the inhibition in assay [1] was 6.43%; at Aurora kinase B [2] it was 18.7%.
For `CCOC(=O)c1cnc2cc(Cl)cc(Cl)c2c1Nc1cccc(S(N)(=O)=O)c1`, the inhibition stood at 61.3% in [1]; 71.8% at Aurora kinase B [2]; 33.7% in assay [4]; 3.1% in [5]; 20.1% in assay [6]; 4.01% in assay [7]. Moreover, in assay [8], the inhibition was 31.8%. For the same molecule, the IC50 amounted to 7.64 µM at Aurora kinase A and 6.89 µM on Aurora kinase B [3]. Also, the “growth inhibition (GI)” value is more than 50% in the assay on 786-0, “>=20%” with A498, more than 50% in the assay on HCT-116 and “>=20%” in the assay with M14.
As for `CCOC(=O)c1cnc2ccc(Br)cc2c1Nc1cccc(S(N)(=O)=O)c1`, the figures for the inhibition (in [1]; at Aurora kinase B [2]) were 26.9% and 87.4%, respectively. Also, the IC50 at Aurora kinase B [3] is 1.62 µM. In addition, the “growth inhibition (GI)” value with A498, with CAKI-1 and in the assay on SNB-75 was “>=20%” throughout.
On to `CCOC(=O)c1cnc2ccc(C)cc2c1Nc1cccc(S(N)(=O)=O)c1`, for which the figures for the inhibition (in assay [1]; at Aurora kinase B [2]) were 14.9% and 57.7%, respectively. Moreover, the IC50 on Aurora kinase B [3] is 8.33 µM. In addition, the “growth inhibition (GI)” value is reported as more than 50% in the assay with HCT-116 and “>=20%” in the assay with BT-549.
In the case of `CCOC(=O)c1cnc2ccccc2c1Nc1cccc(NS(C)(=O)=O)c1`, the results for the inhibition (in assay [1]; at Aurora kinase B [2]) were 71.9% and 56.6%, respectively. In addition, the figures for the half-inhibitory concentration (IC50) at Aurora kinase A and on Aurora kinase B [3] were 13.4 µM and 13.2 µM, respectively. The “growth inhibition (GI)” value is given as “>=20%” in the assay with 786-0, more than 50% in the assay on HCT-116 and more than 50% with M14.
As to `CCOC(=O)c1cnc2ccc(C)cc2c1Nc1cccc(NS(C)(=O)=O)c1`, the “growth inhibition (GI)” value is reported as “>=20%” in the assay on EKVX and more than 50% in the assay on KM12. The inhibition was 64.4% in assay [1] and 81% on Aurora kinase B [2]. Besides, the IC50 at Aurora kinase A is 0.98 µM; at Aurora kinase B [3], 2.99 µM. For the same molecule, the Ratio IC50 in the assay listed under Homo sapiens stood at 3.
As to `CCOC(=O)c1cnc2ccc(Br)cc2c1Nc1cccc(S(=O)(=O)NC)c1`, the inhibition was 10.7% in assay [1] and 21.4% at Aurora kinase B [2]. Further, the “growth inhibition (GI)” value in the assay on NCI-H522, in the assay with HCT-15, in the assay on NCI/ADR-RES, with A498 and in the assay with UO-31 was “>=20%” in each case.
